Assay results reported in patent US9150588B2, “Substituted pyridazin-4(1H)-ones as phosphodiesterase 10A inhibitors” (TAKEDA PHARMACEUTICAL COMPANY LIMITED, priority 2010, dated 2015).

Target: T1, human PDE10A enzyme (Homo sapiens, UniProt Q9Y233)
T1 construct: Human PDE10A full-length gene was transfected into Sf9 or COS-7 cells; His-tag; made in house; host or cells: Sf9 or COS-7 cells
Test: PDE10A Enzyme Activity Inhibition Test (SPA, [3H]cGMP substrate)
Type: biochemical
Conditions: at 100 nM compound; read-out: PDE10A enzyme activity inhibition rate
Experimental: PDE10A Enzyme Activity Inhibition Test
Human PDE10A full-length gene was transfected into Sf9 or COS-7 cells, the cells were disrupted and centrifuged, and human PDE10A enzyme was obtained from the residue. The enzyme extracted from Sf9 cells was partially purified using His-tag affinity column. The enzyme was stored at −70° C. until use. The PDE activity was measured using an SPA (Scintillation Proximity Assay) (GE Healthcare). To measure the inhibitory activity of the compound, 10 μL of serially diluted compound was reacted with 20 μL of PDE enzyme in an assay buffer (50 mM HEPES-NaOH, 8.3 mM MgCl2, 1.7 mM EGTA, 0.1% BSA (pH 7.4)) for 30 min at room temperature. The final concentration of DMSO in the reaction mixture was 1 percent. The compounds were evaluated in duplicate in 96-well half-area plates (Corning). To start the reaction, 10 μL of substrate [^3H] cGMP (25 and 50 nM; GE Healthcare and PerkinElmer, respectively) was added to 40 μL. After 60 min of reaction at room temperature, yttrium SPA beads containing zinc sulphate were added (6 mg/mL, 20 μL) to terminate the PDE reaction. After standing still for 1 hr, the measurement was performed using a scintillation counter (PerkinElmer) and the PDE10A enzyme activity inhibition rate was calculated. The inhibition rate was calculated based on the control containing enzyme and DMSO as 0% and the control without enzyme as 100%.

T1 sequence (Q9Y233 267-1055): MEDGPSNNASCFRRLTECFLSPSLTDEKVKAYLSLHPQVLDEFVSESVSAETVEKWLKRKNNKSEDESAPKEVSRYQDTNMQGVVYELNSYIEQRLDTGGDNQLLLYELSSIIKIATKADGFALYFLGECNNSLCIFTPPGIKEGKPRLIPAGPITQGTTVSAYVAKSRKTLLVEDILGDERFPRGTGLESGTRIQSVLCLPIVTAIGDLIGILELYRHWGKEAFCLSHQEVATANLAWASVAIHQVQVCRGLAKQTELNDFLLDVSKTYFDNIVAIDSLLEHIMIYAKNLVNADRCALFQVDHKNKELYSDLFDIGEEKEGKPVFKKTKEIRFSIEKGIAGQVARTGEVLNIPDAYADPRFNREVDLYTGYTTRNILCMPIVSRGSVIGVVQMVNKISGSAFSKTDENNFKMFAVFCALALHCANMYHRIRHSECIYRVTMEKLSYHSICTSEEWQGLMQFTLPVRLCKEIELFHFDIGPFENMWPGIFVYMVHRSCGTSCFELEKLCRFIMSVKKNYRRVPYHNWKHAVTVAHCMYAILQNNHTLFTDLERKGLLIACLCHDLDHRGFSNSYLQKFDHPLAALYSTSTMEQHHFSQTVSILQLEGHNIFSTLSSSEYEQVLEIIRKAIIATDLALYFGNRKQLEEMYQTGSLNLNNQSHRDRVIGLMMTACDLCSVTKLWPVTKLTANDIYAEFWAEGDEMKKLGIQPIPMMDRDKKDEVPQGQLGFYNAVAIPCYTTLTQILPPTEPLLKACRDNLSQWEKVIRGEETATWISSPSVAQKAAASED

**Q.** Which inhibition at 0.1 µM does the source give for O=c1c(-c2ccnn2-c2ccccc2)nn(-c2cccc(C(F)(F)F)c2)c2ccoc12 [Example 1, 3-(1-phenyl-1H-pyrazol-5-yl)-1-[3-(trifluoromethyl)phenyl]furo[3,2-c]pyridazin-4(1H)-one] here?
**A.** The inhibition at 0.1 µM was ≥ 50%.

**Q.** How did the inhibition at 0.1 µM turn out when O=c1c(-c2ccnn2-c2ccccc2)nn(-c2cccc(C(F)(F)F)c2)c2c1OCC2 [Example 2, 3-(1-phenyl-1H-pyrazol-5-yl)-1-[3-(trifluoromethyl)phenyl]-6,7-dihydrofuro[3,2-c]pyridazin-4(1H)-one] was run?
**A.** Its inhibition at 0.1 µM is ≥ 50%.

**Q.** With O=c1cc2n(nc1-c1ccnn1-c1ccccc1)-c1ccccc1OC2 [Example 11, 2-(1-phenyl-1H-pyrazol-5-yl)pyridazino[6,1-c][1,4]benzoxazin-3(5H)-one] as the compound, how does the inhibition at 0.1 µM read?
**A.** Its inhibition at 0.1 µM is ≥ 50%.

**Q.** How did the inhibition at 0.1 µM turn out when COc1c(-c2ccnn2-c2ccccc2)oc(-c2ccccc2)cc1=O [Example 12, 3-methoxy-6-phenyl-2-(1-phenyl-1H-pyrazol-5-yl)-4H-pyran-4-one] was run?
**A.** The inhibition at 0.1 µM was < 50%.

**Q.** O=c1[nH]cc(-c2ccccc2)nc1-c1ccnn1-c1ccccc1 [Example 13, 5-phenyl-3-(1-phenyl-1H-pyrazol-5-yl)pyrazin-2(1H)-one] was tested. Which inhibition at 0.1 µM did it give?
**A.** The inhibition at 0.1 µM was < 50%.

**Q.** For O=c1cc(-c2ccccc2)oc(-c2ccnn2-c2ccccc2)c1O [Example 14, 3-hydroxy-6-phenyl-2-(1-phenyl-1H-pyrazol-5-yl)-4H-pyran-4-one], which inhibition at 0.1 µM is on record?
**A.** Its inhibition at 0.1 µM is < 50%.

**Q.** How did the inhibition at 0.1 µM turn out when O=c1[nH]nc(-c2ccccc2)cc1-c1ccnn1-c1ccccc1 [Example 15, 6-phenyl-4-(1-phenyl-1H-pyrazol-5-yl)pyridazin-3(2H)-one] was run?
**A.** Its inhibition at 0.1 µM is < 50%.

**Q.** How did the inhibition at 0.1 µM turn out when O=c1[nH]cc(-c2ccccc2)cc1-c1ccnn1-c1ccccc1 [Example 16, 5-phenyl-3-(1-phenyl-1H-pyrazol-5-yl)pyridin-2(1H)-one] was run?
**A.** The inhibition at 0.1 µM was ≥ 50%.

**Q.** How did the inhibition at 0.1 µM turn out when O=c1cc(-c2ccnn2-c2ccccc2)nc(-c2ccccc2)[nH]1 [Example 17, 2-phenyl-6-(1-phenyl-1H-pyrazol-5-yl)pyrimidin-4(3H)-one] was run?
**A.** Its inhibition at 0.1 µM is < 50%.

**Q.** O=c1ccn(-c2cccc(C(F)(F)F)c2)cc1-c1ccnn1-c1ccccc1 [Example 18, 3-(1-phenyl-1H-pyrazol-5-yl)-1-[3-(trifluoromethyl)phenyl]pyridin-4(1H)-one] was tested. Which inhibition at 0.1 µM did it give?
**A.** Its inhibition at 0.1 µM is < 50%.

**Q.** How did the inhibition at 0.1 µM turn out when O=c1cnn(-c2cccc(C(F)(F)F)c2)cc1-c1ccnn1-c1ccccc1 [Example 19, 5-(1-phenyl-1H-pyrazol-5-yl)-1-[3-(trifluoromethyl)phenyl]pyridazin-4(1H)-one] was run?
**A.** Its inhibition at 0.1 µM is < 50%.

**Q.** Which inhibition at 0.1 µM does the source give for O=c1ccc(-c2ccccc2F)cn1-c1ccnn1-c1ccccc1 [Example 20, 5-(2-fluorophenyl)-1-(1-phenyl-1H-pyrazol-5-yl)pyridin-2(1H)-one] here?
**A.** Its inhibition at 0.1 µM is < 50%.

**Q.** O=c1ccc(-c2cccc(C(F)(F)F)c2)nn1-c1ccnn1-c1ccccc1 [Example 21, 2-(1-phenyl-1H-pyrazol-5-yl)-6-[3-(trifluoromethyl)phenyl]pyridazin-3(2H)-one] was tested. Which inhibition at 0.1 µM did it give?
**A.** The inhibition at 0.1 µM was < 50%.

**Q.** For COc1cn(Cc2ccccc2)nc(-c2ccnn2-c2ccccc2)c1=O [Example 23, 1-benzyl-5-methoxy-3-(1-phenyl-1H-pyrazol-5-yl)pyridazin-4(1H)-one], which inhibition at 0.1 µM is on record?
**A.** The inhibition at 0.1 µM was ≥ 50%.

**Q.** With COc1cn(C2=CCN(Cc3ccccc3)CC2)nc(-c2ccnn2-c2ccccc2)c1=O [Example 25, 1-(1-benzyl-1,2,3,6-tetrahydropyridin-4-yl)-5-methoxy-3-(1-phenyl-1H-pyrazol-5-yl)pyridazin-4(1H)-one] as the compound, how does the inhibition at 0.1 µM read?
**A.** Its inhibition at 0.1 µM is ≥ 50%.

**Q.** O=c1ccn(C2CCN(Cc3ccccc3)CC2)nc1-c1ccnn1-c1ccccc1 [Example 28, 1-(1-benzylpiperidin-4-yl)-3-(1-phenyl-1H-pyrazol-5-yl)pyridazin-4(1H)-one] was tested. Which inhibition at 0.1 µM did it give?
**A.** Its inhibition at 0.1 µM is < 50%.

**Q.** How did the inhibition at 0.1 µM turn out when O=c1ccn(C2CCN(c3ccccc3)CC2)nc1-c1ccnn1-c1ccccc1 [Example 31, 1-(1-phenylpiperidin-4-yl)-3-(1-phenyl-1H-pyrazol-5-yl)pyridazin-4(1H)-one] was run?
**A.** Its inhibition at 0.1 µM is ≥ 50%.

**Q.** For O=c1ccn(C2CCCN(c3ccccc3)C2)nc1-c1ccnn1-c1ccccc1 (centres unmarked) [Example 46, 1-(1-phenylpiperidin-3-yl)-3-(1-phenyl-1H-pyrazol-5-yl)pyridazin-4(1H)-one], which inhibition at 0.1 µM is on record?
**A.** The inhibition at 0.1 µM was < 50%.

**Q.** Which inhibition at 0.1 µM does the source give for O=C(c1ccccc1)N1CCC(n2ccc(=O)c(-c3ccnn3-c3ccccc3)n2)CC1 [Example 49, 1-[1-(phenylcarbonyl)piperidin-4-yl]-3-(1-phenyl-1H-pyrazol-5-yl)pyridazin-4(1H)-one] here?
**A.** The inhibition at 0.1 µM was < 50%.

**Q.** For COc1cn(C2CCN(c3nccs3)CC2)nc(-c2ccnn2-c2ccccc2)c1=O [Example 53, 5-methoxy-3-(1-phenyl-1H-pyrazol-5-yl)-1-[1-(1,3-thiazol-2-yl)piperidin-4-yl]pyridazin-4(1H)-one], which inhibition at 0.1 µM is on record?
**A.** Its inhibition at 0.1 µM is ≥ 50%.

**Q.** How did the inhibition at 0.1 µM turn out when COc1cn(C2CCN(c3ncccc3C#N)CC2)nc(-c2ccnn2-c2ccccc2)c1=O [Example 56, 2-{4-[5-methoxy-4-oxo-3-(1-phenyl-1H-pyrazol-5-yl)pyridazin-1(4H)-yl]piperidin-1-yl}pyridine-3-carbonitrile] was run?
**A.** The inhibition at 0.1 µM was ≥ 50%.

**Q.** COc1cn(C2CCc3ccccc3C2)nc(-c2ccnn2-c2ccccc2)c1=O (centres unmarked) [Example 58, 5-methoxy-3-(1-phenyl-1H-pyrazol-5-yl)-1-(1,2,3,4-tetrahydronaphthalen-2-yl)pyridazin-4(1H)-one] was tested. Which inhibition at 0.1 µM did it give?
**A.** Its inhibition at 0.1 µM is ≥ 50%.

**Q.** With COc1cn(CC2CC2)nc(-c2ccnn2-c2ccccc2)c1=O [Example 59, 1-(cyclopropylmethyl)-5-methoxy-3-(1-phenyl-1H-pyrazol-5-yl)pyridazin-4(1H)-one] as the compound, how does the inhibition at 0.1 µM read?
**A.** The inhibition at 0.1 µM was < 50%.

**Q.** For COc1cn(S(=O)(=O)c2ccccc2)nc(-c2ccnn2-c2ccccc2)c1=O [Example 60, 5-methoxy-3-(1-phenyl-1H-pyrazol-5-yl)-1-(phenylsulfonyl)pyridazin-4(1H)-one], which inhibition at 0.1 µM is on record?
**A.** Its inhibition at 0.1 µM is < 50%.

**Q.** For COc1cn(Cc2cccc(-c3ccccc3)c2)nc(-c2ccnn2-c2ccccc2)c1=O [Example 61, 1-(biphenyl-3-ylmethyl)-5-methoxy-3-(1-phenyl-1H-pyrazol-5-yl)pyridazin-4(1H)-one], which inhibition at 0.1 µM is on record?
**A.** Its inhibition at 0.1 µM is ≥ 50%.

**Q.** Which inhibition at 0.1 µM does the source give for O=c1ccn(C2CCN(c3ccccc3C(F)(F)F)CC2)nc1-c1ccnn1-c1ccccc1 [Example 64, 3-(1-phenyl-1H-pyrazol-5-yl)-1-{1-[2-(trifluoromethyl)phenyl]piperidin-4-yl}pyridazin-4(1H)-one] here?
**A.** The inhibition at 0.1 µM was < 50%.

**Q.** For COc1cn(C2CCCc3ccccc32)nc(-c2ccnn2-c2ccccc2)c1=O (centres unmarked) [Example 97, 5-methoxy-3-(1-phenyl-1H-pyrazol-5-yl)-1-(1,2,3,4-tetrahydronaphthalen-1-yl)pyridazin-4(1H)-one], which inhibition at 0.1 µM is on record?
**A.** Its inhibition at 0.1 µM is < 50%.

**Q.** With COc1cn(C2CN(c3ncccc3C(F)(F)F)C2)nc(-c2ccnn2-c2ccccc2)c1=O [Example 98, 5-methoxy-3-(1-phenyl-1H-pyrazol-5-yl)-1-{1-[3-(trifluoromethyl)pyridin-2-yl]azetidin-3-yl}pyridazin-4(1H)-one] as the compound, how does the inhibition at 0.1 µM read?
**A.** Its inhibition at 0.1 µM is ≥ 50%.

**Q.** How did the inhibition at 0.1 µM turn out when COc1cn(Cc2ccccc2C(F)(F)F)nc(-c2ccnn2-c2ccccc2)c1=O [Example 102, 5-methoxy-3-(1-phenyl-1H-pyrazol-5-yl)-1-[2-(trifluoromethyl)benzyl]pyridazin-4(1H)-one] was run?
**A.** The inhibition at 0.1 µM was < 50%.

**Q.** With O=c1cc(-c2ccccc2)sc(-c2ccnn2-c2ccccc2)c1 [Example 140, 2-phenyl-6-(1-phenyl-1H-pyrazol-5-yl)-4H-thiopyran-4-one] as the compound, how does the inhibition at 0.1 µM read?
**A.** The inhibition at 0.1 µM was < 50%.

**Q.** COc1nc(-c2ccccc2)cn(-c2ccnn2-c2ccccc2)c1=O [Example 141, 3-methoxy-5-phenyl-1-(1-phenyl-1H-pyrazol-5-yl)pyrazin-2(1H)-one] was tested. Which inhibition at 0.1 µM did it give?
**A.** Its inhibition at 0.1 µM is < 50%.

**Q.** For COc1cn(-c2cccc(C(F)(F)F)c2)nc(C2=NC(C)(C)C(=O)N2c2ccccc2)c1=O [Example 142, 3-(4,4-dimethyl-5-oxo-1-phenyl-4,5-dihydro-1H-imidazol-2-yl)-5-methoxy-1-[3-(trifluoromethyl)phenyl]pyridazin-4(1H)-one], which inhibition at 0.1 µM is on record?
**A.** The inhibition at 0.1 µM was < 50%.
